The values that follow come from publication doi:10.1101/2021.10.07.463234v2 (biorxiv, 2021).

This assay has as its target SARS-CoV-2 Mac1 (Severe acute respiratory syndrome coronavirus 2, UniProt P0DTD1). The assay can be described thus: biochemical. The conditions noted are these: for inhibition at 100 µM: read-out: %inhibition; for %inhibition: 100 µM, inhibitor.

Structures can show the parent of a compound that is named as a salt. Square brackets hold non-standard residues; d marks the D form. Peptide text beside a SMILES is read from it. pGlu = O=C1CC[C@@H](C(=O)O)N1; Thz = O=C(O)[C@@H]1CSCN1

In the case of `O=C(Nc1cc(Cl)cc(Cl)c1O)c1c(O)c(Cl)cc(Cl)c1Cl` [Oxyclozanide], the inhibition at 100 µM was 8.75%.

In the case of `CN(C)[C@@H]1C(=O)C(C(N)=O)=C(O)[C@@]2(O)C(=O)C3=C(O)c4c(O)cccc4[C@@](C)(O)C3[C@H](O)C12` (stereo partly drawn) [Oxytetracycline (Terramycin)], the inhibition at 100 µM was 15.9%.

On to `CN(C)[C@@H]1C(O)=C(C(N)=O)C(=O)[C@@]2(O)C(O)=C3C(=O)c4c(O)cccc4[C@@](C)(O)[C@H]3[C@H](O)[C@@H]12` [Oxytetracycline Dihydrate], for which the inhibition at 100 µM came to 0%.

Consider `O=C(O)/C=C/c1ccc(Cn2ccnc2)cc1` [Ozagrel HCl], for which the “%inhibition” value is listed as 0%.

Turning to `O=C(O)/C=C/c1ccc(Cn2ccnc2)cc1` [Ozagrel sodium], the “%inhibition” value was found to be 1.667%.

For the compound `O=C(O)/C=C/c1ccc(Cn2ccnc2)cc1` [Ozagrel], the “%inhibition” value came to 4.368%.

On to `CC(C)Oc1ccc(-c2nc(-c3cccc4c3CC[C@@H]4NCCO)no2)cc1C#N` [Ozanimod (RPC1063)], for which the inhibition at 100 µM was determined as 0%.

On to `CC(=O)O[C@H]1C(=O)[C@@]2(C)[C@H]([C@H](OC(=O)c3ccccc3)[C@]3(O)C[C@H](OC(=O)[C@H](O)[C@@H](NC(=O)c4ccccc4)c4ccccc4)C(C)=C1C3(C)C)[C@]1(OC(C)=O)CO[C@@H]1C[C@@H]2O` [Paclitaxel], for which the inhibition at 100 µM came to 6.04%.

For `C1=N/C2=N/c3ccc(OCCN4CCCC4)c(c3)COC/C=C/COCc3cccc(c3)C(=C1)N2` [Pacritinib (SB1518)], the inhibition at 100 µM was determined as 0%.

Regarding `CC(=O)c1c(C)c2cnc(Nc3ccc(N4CCNCC4)cn3)nc2n(C2CCCC2)c1=O` [Palbociclib (PD-0332991) HCl], the inhibition at 100 µM turned out to be 0%.

As to `Cc1nc2n(c(=O)c1CCN1CCC(c3noc4cc(F)ccc34)CC1)CCCC2O` (stereo not drawn) [Paliperidone], the inhibition at 100 µM amounted to 1.55%.

In the case of `O=C1c2cccc3c2[C@H](CCC3)CN1[C@@H]1CN2CCC1CC2` [Palonosetron HCl], the inhibition at 100 µM was 0%.

As to `NCCC(O)(P(=O)(O)O)P(=O)(O)O` [Pamidronate Disodium], the inhibition at 100 µM turned out to be 0.654%.

Consider `CC(=O)O[C@H]1C[C@@H]2CC[C@@H]3[C@H](CC[C@@]4(C)[C@H]3C[C@H]([N+]3(C)CCCCC3)[C@@H]4OC(C)=O)[C@@]2(C)C[C@@H]1[N+]1(C)CCCCC1` [Pancuronium dibromide], for which the inhibition at 100 µM is 0%.

With `Cc1[nH]c2ccccc2c1CCNCc1ccc(/C=C/C(=O)NO)cc1` [Panobinostat (LBH589)], the inhibition at 100 µM is 7.31%.

Turning to `COc1ccnc(C[S+]([O-])c2nc3cc(OC(F)F)ccc3[nH]2)c1OC` (stereo not drawn) [Pantoprazole sodium], the “%inhibition” value is given as 0%.

With `COc1ccnc(C[S+]([O-])c2nc3cc(OC(F)F)ccc3[nH]2)c1OC` (stereo not drawn) [Pantoprazole], the “%inhibition” value amounted to 6.936%.

Regarding `CCC(=O)NS(=O)(=O)c1ccc(-c2c(-c3ccccc3)noc2C)cc1` [Parecoxib Sodium], the “%inhibition” value came to 8.572%.

Consider `CCC(=O)NS(=O)(=O)c1ccc(-c2c(-c3ccccc3)noc2C)cc1` [Parecoxib], for which the “%inhibition” value is given as 0%.

For the compound `C#CCN(C)Cc1ccccc1` [Pargyline hydrochloride], the inhibition at 100 µM is 0%.

`Cc1cnc(C(=O)N[C@H]2CCCCC/C=C\[C@@H]3C[C@@]3(C(=O)NS(=O)(=O)C3CC3)NC(=O)[C@@H]3C[C@@H](Oc4nc5ccccc5c5ccccc45)CN3C2=O)cn1` [Paritaprevir (ABT-450)]: the inhibition at 100 µM is 0%.

`NC[C@@H]1O[C@H](O[C@H]2[C@@H](O)[C@H](O[C@@H]3[C@@H](O)[C@H](N)C[C@H](N)[C@H]3O[C@H]3O[C@H](CO)[C@@H](O)[C@H](O)[C@H]3N)O[C@@H]2CO)[C@H](N)[C@@H](O)[C@@H]1O` [Paromomycin Sulfate]: the inhibition at 100 µM was found to be 0.814%.

As for `Fc1ccc([C@@H]2CCNC[C@H]2COc2ccc3c(c2)OCO3)cc1` [Paroxetine HCl], the “%inhibition” value was 28.69%.

With `Fc1ccc([C@@H]2CCNC[C@H]2COc2ccc3c(c2)OCO3)cc1` [Paroxetine mesylate], the “%inhibition” value was determined as 0%.

`C/C(=C\c1csc(C)n1)[C@@H]1C[C@@H]2O[C@]2(C)CCC[C@H](C)[C@H](O)[C@@H](C)C(=O)C(C)(C)[C@@H](O)CC(=O)O1` [Patupilone (EPO906, Epothilone B)]: the inhibition at 100 µM was 19.2%.

As to `Cc1ccc(Nc2nccc(N(C)c3ccc4c(C)n(C)nc4c3)n2)cc1S(N)(=O)=O` [Pazopanib HCl (GW786034 HCl)], the “%inhibition” value was 31.56%.

Consider `Cc1ccc(Nc2nccc(N(C)c3ccc4c(C)n(C)nc4c3)n2)cc1S(N)(=O)=O` [Pazopanib], for which the “%inhibition” value turned out to be 12.94%.

As for `C[C@H]1COc2c(C3(N)CC3)c(F)cc3c(=O)c(C(=O)O)cn1c23` [Pazufloxacin mesylate], the inhibition at 100 µM came out at 0%.

In the case of `CCOc1cc2ncc(C#N)c(Nc3ccc(F)c(Cl)c3)c2cc1NC(=O)/C=C/CN(C)C` [Pelitinib (EKB-569)], the inhibition at 100 µM was determined as 0%.

For the compound `Nc1nc2[nH]cc(CCc3ccc(C(=O)N[C@@H](CCC(=O)O)C(=O)O)cc3)c2c(=O)[nH]1` [Pemetrexed Disodium Hydrate], the inhibition at 100 µM came to 6.24%.

As for `Nc1nc2[nH]cc(CCc3ccc(C(=O)N[C@@H](CCC(=O)O)C(=O)O)cc3)c2c(=O)[nH]1` [Pemetrexed], the “%inhibition” value is 4.612%.

With `Cc1cccn2c(=O)c(-c3nnn[nH]3)cnc12` [Pemirolast potassium], the inhibition at 100 µM is 0%.

For `CN1C(C)(C)CCCC1(C)C` [Pempidine], the inhibition at 100 µM was 28.2%.

As to `Nc1nc(O)c2ncn(CCC(CO)CO)c2n1` [Penciclovir], the inhibition at 100 µM was 14.9%.

On to `OC1(c2ccc(Cl)c(C(F)(F)F)c2)CCN(CCCC(c2ccc(F)cc2)c2ccc(F)cc2)CC1` [Penfluridol], for which the inhibition at 100 µM worked out at 5.86%.

On to `CC(C)(S)[C@@H](N)C(=O)O` [Penicillamine], for which the inhibition at 100 µM was determined as 0.561%.

Take `CC1(C)S[C@@H]2[C@H](NC(=O)Cc3ccccc3)C(=O)N2[C@H]1C(=O)O` [Penicillin G Sodium]: the inhibition at 100 µM worked out at 5.64%.

For the compound `CC1(C)S[C@@H]2[C@H](NC(=O)COc3ccccc3)C(=O)N2[C@H]1C(=O)O` [Penicillin V potassium salt], the inhibition at 100 µM is 0%.

Regarding `N=C(N)c1ccc(OCCCCCOc2ccc(C(=N)N)cc2)cc1` [Pentamidine isethionate], the inhibition at 100 µM amounted to 0%.

In the case of `CC(=O)CCCCn1c(=O)c2c(ncn2C)n(C)c1=O` [Pentoxifylline], the inhibition at 100 µM turned out to be 19.6%.

On to `CCN(CC)CCOCCOC(=O)C1(c2ccccc2)CCCC1` [Pentoxyverine Citrate], for which the inhibition at 100 µM was 24.6%.

As for `CCCN1C[C@H](CSC)C[C@@H]2c3cccc4[nH]cc(c34)C[C@H]21` [Pergolide Mesylate], the inhibition at 100 µM was determined as 7.58%.

`CCC[C@H](N[C@@H](C)C(=O)N1[C@H](C(=O)O)C[C@@H]2CCCC[C@@H]21)C(=O)OCC` [Perindopril Erbumine]: the inhibition at 100 µM turned out to be 5.79%.

`OCCN1CCN(CCCN2c3ccccc3Sc3ccc(Cl)cc32)CC1` [Perphenazine]: the inhibition at 100 µM was 0%.

With `FC(F)(F)c1ccc(CNc2ccc(Cc3c[nH]c4ncc(Cl)cc34)cn2)cn1` [Pexidartinib (PLX3397)], the inhibition at 100 µM amounted to 0.21%.

Regarding `Cc1ccc(-n2nc(C(C)(C)C)cc2NC(=O)NCc2cc(F)ccc2Oc2ccc3c(cnn3CCO)c2)cc1` [Pexmetinib (ARRY-614)], the inhibition at 100 µM was determined as 0.769%.

In the case of `CCOc1ccc(NC(C)=O)cc1` [Phenacetin], the inhibition at 100 µM stood at 11.4%.

With `Nc1ccc(/N=N/c2ccccc2)c(N)n1` [Phenazopyridine HCl], the inhibition at 100 µM came to 17%.

Consider `N=C(N)NC(=N)NCCc1ccccc1` [Phenformin HCl], for which the inhibition at 100 µM was found to be 30.5%.

Take `O=C1c2ccccc2C(=O)C1c1ccccc1` [Phenindione]: the inhibition at 100 µM was 28.8%.

With `CN(C)CCC(c1ccccc1)c1ccccn1` (stereo not drawn) [Pheniramine Maleate], the inhibition at 100 µM stood at 9.19%.

Regarding `c1ccc2c(c1)Nc1ccccc1S2` [Phenothiazine], the inhibition at 100 µM is 18.2%.

On to `CC(COc1ccccc1)N(CCCl)Cc1ccccc1` (stereo not drawn) [Phenoxybenzamine HCl], for which the inhibition at 100 µM worked out at 0%.

In the case of `Cc1ccc(N(CC2=NCCN2)c2cccc(O)c2)cc1` [Phentolamine Mesylate], the inhibition at 100 µM was 0%.

As to `CCCCC1C(=O)N(c2ccccc2)N(c2ccccc2)C1=O` [Phenylbutazone], the inhibition at 100 µM was determined as 0%.

Regarding `CNC[C@H](O)c1cccc(O)c1` [Phenylephrine HCl], the inhibition at 100 µM was found to be 14.5%.

For `O=C1N=C(O)NC1(c1ccccc1)c1ccccc1` [Phenytoin Sodium], the inhibition at 100 µM came to 16%.

Take `O=C1NC(=O)C(c2ccccc2)(c2ccccc2)N1` [Phenytoin]: the inhibition at 100 µM was found to be 14.7%.

Take `CC(=O)NS(=O)(=O)c1ccc(NC(=O)c2ccccc2C(=O)O)cc1` [Phthalylsulfacetamide]: the inhibition at 100 µM was 6.67%.

As for `CS(=O)(=O)N1CCN(Cc2cc3nc(-c4cccc5[nH]ncc45)nc(N4CCOCC4)c3s2)CC1` [Pictilisib (GDC-0941)], the inhibition at 100 µM is 10.2%.

Consider `O=C1CC[C@@H](C(=O)N2CSC[C@H]2C(=O)O)N1` [Pidotimod] ([pGlu]-[Thz]-OH), for which the inhibition at 100 µM is 4.19%.

As to `COc1ccc(Cl)c(Nc2nc3ccccc3nc2NS(=O)(=O)c2cccc(NC(=O)C(C)(C)N)c2)c1` [Pilaralisib (XL147)], the inhibition at 100 µM amounted to 31.9%.

Turning to `CC[C@@H]1C(=O)OC[C@@H]1Cc1cncn1C` [Pilocarpine HCl], the inhibition at 100 µM turned out to be 0%.

`CC(C)COc1ccc(CNC(=O)N(Cc2ccc(F)cc2)C2CCN(C)CC2)cc1` [Pimavanserin]: the inhibition at 100 µM is 1.16%.

For the compound `CC[C@@H]1/C=C(\C)C[C@H](C)C[C@H](OC)[C@H]2O[C@@](O)(C(=O)C(=O)N3CCCC[C@H]3C(=O)O[C@H](/C(C)=C/[C@@H]3CC[C@H](Cl)[C@H](OC)C3)[C@H](C)[C@@H](O)CC1=O)[C@H](C)C[C@@H]2OC` [Pimecrolimus], the inhibition at 100 µM worked out at 25.5%.

With `COc1ccc(-c2nc3cc(C4=NNC(=O)CC4C)ccc3[nH]2)cc1` (stereo not drawn) [Pimobendan], the inhibition at 100 µM came to 13%.

What is called inhibition is the percentage by which the read-out fell short of the control. The %inhibition is how much of the control response was suppressed. Low values mean little suppression, high ones strong suppression.
